For assay [1], the target named is T1, human MR1-β2-microglobulin (β2m) complex (Homo sapiens, UniProt Q95460).
T1 construct: plasmids encoding for the extracellular domains of MR1, β2m, and the AF-7 TCRα and TCRβ chains; made in house
Kind of assay: In vitro refolding of MR1-β2m co-complex with ligand. Format: binding. Particulars: ligand added to refolding buffer. An excerpt: We then assessed the capacity of RF and its catabolites to be loaded within recombinant MR1. The human MR1-β2-microglobulin (β2m) complex can only co-purify when the MR1 Ag-binding pocket is occupied with ligand ([Kjer-Nielsen et al., 2012]). […] Next, we examined how these catabolites could stabilize MR1 using an in vitro MR1-Ag complexes through thermostability assay ([Eckle et al., 2014]) (Fig. 1H). Here, the half-maximum melting temperatures (Tm50) of the stable complexes MR1-5-OP-RU and MR1-Ac-6-FP were 58.65 ± 0.42 and 62.12 ± 0.37 °C; respectively, consistent with previous values ([Eckle et al., 2014]). […] Thus, the binding of these ligands stabilizes the MR1 protein but to a lower extent in comparison to MR1-5-OP-RU and MR1-Ac-6-FP (Fig. 1H).
Escherichia coli BL21(DE3) cells were transformed with plasmids encoding for the extracellular domains of MR1, β2m, and the AF-7 TCRα and TCRβ chains ([Kjer-Nielsen et al., 2012]; [Patel et al., 2013]; [Wang et al., 2022a]). The proteins were then expressed, and the inclusion bodies were purified, cleaned, and used for refolding. For both MR1 and AF-7 TCR, inclusion bodies were refolded through rapid dilution overnight as previously mentioned ([Keller et al., 2017]). To refold MR1 with ligands, 58 mg MR1 inclusion bodies along with 30 mg of β2m inclusion bodies were placed in a 500 ml of refold buffer consisting of 0.1 M Tris pH 8.0, 5 M of urea, 2 mM EDTA, 2.5 mM oxidized glutathione, 20 mM reduced glutathione and 0.4 M of L-arginine for 16 h at 4° C. Ligands were dissolved in dilute NaOH and added directly into the refolding buffer. […] The refolded MR1-ligand complex was dialyzed against 10 mM Tris pH 8.0 overnight and purified using size-exclusion (Superdex 200, GE Healthcare) and anion-exchange (HiTrapQ, GE Healthcare) chromatography techniques ([Awad et al., 2020a]).

The next assay has as its system C1R.MR1 cells. Put plainly: Cell surface MR1 quantification by flow cytometry, C1R.MR1. In kind it is cell-based. Particulars: for MR1 cell surface expression: 1–200 μM. The protocol:
Next, we investigated whether these RF catabolites can impact MR1 cell surface expression in both MR1-transduced B cell lymphoblastoid (C1R.MR1) and monocytic (THP-1.MR1) cell lines (Fig. 2). Here, the cells were pulsed with 1–200 μM of RF or the RF catabolites, and the cell surface levels of MR1 were quantified by flow cytometry ([Awad et al., 2020a]; [Keller et al., 2017]). Cell viability was unaffected, even at highest concentrations of the catabolites, as depicted in Fig. S2A. […] No impact on the MR1 surface level was observed when the parental C1R cells were incubated with these RF catabolites, probably due to the low basal surface MR1 level whose further reduction becomes undetectable by the anti-MR1 antibody (Fig. S2B). The MR1 downregulation seen in C1R.MR1 cells was specific to MR1 as the level of HLA-A*02:01 was not affected after pulsing C1R-A2 with the ligands (Fig. S2C). […] This MR1 downregulation varied between cell types, with a higher extent observed in THP-1.MR1 than C1R.MR1, and was seen after staining with both two conformational anti-MR1 8F2F9 and 26.5 antibodies (clones 8F2F9 and 26.5; Fig. 2G).
The level of MR1 expressed on the cell surface was measured after the exposure to the investigated ligands as previously described ([Awad et al., 2020a]; [Wang et al., 2022a]). C1R antigen presenting B lymphocytes overexpressing MR1*01 (C1R.MR1), MR1^K43A mutant (C1R.MR1^K43A), MR1^R9H mutant (C1R.MR1^R9H) or HLA-A*02:01 (C1R-A2), in addition to the monocytic THP-1-MR1 cells, were used in this study. 2 x 10^5 cells were incubated with RF catabolites for 3 or 16 h at 37° C and 5% CO2 in 200 μl folate-free RPMI 1640 medium from Gibco (Cat. No. 11875-093) fortified with 10% fetal bovine serum (FBS), sodium pyruvate (1 mmol/L), Hepes buffer (15 mmol/L), pH 7.2 to 7.5, 2% penicillin (100 U/ml), streptomycin ([…]), glutamax (2 mmol/L), nonessential amino acids (0.1 mmol/L) (all from ThermoFisher, Life Technologies), and 2-mercaptoethanol ([…], Sigma) (RF-10). After incubation, the cells were first stained with Zombie Aqua Fixable Viability Kit from BioLegend (Cat. No. 423102) and then incubated with biotinylated 8F2F9 αMR1 antibody for 30 minutes on ice. The unbound antibody was then washed off with 2% fetal bovine serum/PBS. The cells were finally incubated with PE-conjugated streptavidin (BioLegend, 30 μg/ml) and then washed with 2% fetal bovine serum/PBS. The PE fluorescence intensity reflects the surface MR1 level. The data was acquired with an LSRFortessa X-20 (BD Biosciences) and Diva software (BD Biosciences) and analyzed using FlowJo software (BD Biosciences).
A general note: Flow cytometry measures light scatter and fluorescence of single cells or particles in a stream.

The test system of assay [2] is SKW-3 cells expressing MBV28 (TRAV1-2/TRBV28) TCR. Kind of assay: MAIT cell activation assay, SKW-3 MBV28 TCR co-cultured with C1R.MR1. In kind it is cell-based. The note with it: for 5-OP-RU-induced activation (CD69): SKW-3 MBV28, in presence of 1 nM 5-OP-RU. The protocol:
(§1) Next, we explored whether RF catabolites could activate SKW-3 cells expressing two different MAIT TCRs. Distinct responses of T cells expressing TCRs with varying TRBV chain usage reinforces the role of Vβ in modulating MAIT responses to various ligands ([Chancellor et al., 2023]; [Gherardin et al., 2016]; [Seneviratna et al., 2022]).The surface expression of CD69 was measured as a marker for activation of cells expressing the AF-7 (TRAV1-2/TRBV6-1) or MBV28 (TRAV1-2/TRBV28) TCRs after co-culture with C1R.MR1 cells and the ligands.
(§2) C1R.MR1 cells (1 x 10^5) were initially stained with CTV for 15 minutes and then incubated with RF catabolites for 20 h. […] Cells were subsequently stained with PE-Cy7-conjugated anti-CD69 (BD; 1:100) and PE-labelled anti-MR1 (26.5 clone; BD; 1:100), before analysis on LSRFortessa (BD Biosciences) flow cytometer. Activation of SKW-3-MAIT cells was reflected by the cell-surface CD69 expression.

Another assay deals with T2, hMR1 protein (Homo sapiens, UniProt Q95460).
T2 construct: plasmids encoding for the extracellular domains of MR1, β2m, and the AF-7 TCRα and TCRβ chains; made in house
Put plainly: Fluorescence polarization (FP)-based cell-free MR1 binding assay (competition with JYM20). For orientation: In fluorescence polarisation assays a small probe gives low polarisation when free and higher when bound to something large.

For assay [3], the system named is SKW-3 cells expressing AF-7 (TRAV1-2/TRBV6-1) TCR. Put plainly: MAIT cell activation assay, SKW-3 AF-7 TCR co-cultured with C1R.MR1. Format: cell-based. The note with it: for 5-OP-RU-induced activation (CD69): SKW-3 AF-7, in presence of 1 nM 5-OP-RU; for CD69 surface expression (activation): SKW-3 AF-7, ligand alone. As to the method:
as §1, §2

Setting [4] is: competition with 10 nM JYM20 for 100 nM empty hMR1, 37°C, read-out: IC50.

Where “and” joins values, the source holds several entries; their conditions need not be identical. Equal entries are not always repeated. Where two headings read alike, the source gives them in different places.

Usually IC50 stands for the concentration needed to halve the response being measured.

T1 sequence (Q95460 23-302 limits assumed): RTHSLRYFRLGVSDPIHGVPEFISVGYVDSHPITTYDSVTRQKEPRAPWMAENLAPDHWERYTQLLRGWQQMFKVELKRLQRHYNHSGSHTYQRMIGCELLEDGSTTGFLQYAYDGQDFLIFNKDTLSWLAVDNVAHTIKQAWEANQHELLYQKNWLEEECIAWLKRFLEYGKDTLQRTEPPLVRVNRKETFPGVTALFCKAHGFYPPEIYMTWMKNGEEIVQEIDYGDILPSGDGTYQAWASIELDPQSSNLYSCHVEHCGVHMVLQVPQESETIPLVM
T1 sequence (P61769 21-119 partner): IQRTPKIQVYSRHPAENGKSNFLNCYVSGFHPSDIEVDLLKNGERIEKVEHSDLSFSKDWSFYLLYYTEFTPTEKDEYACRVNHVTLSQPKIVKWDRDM
T2 sequence (Q95460 23-302 limits assumed): as the sequence (Q95460 23-302 limits assumed) above
T2 sequence (P61769 21-119 partner): as the sequence (P61769 21-119 partner) above

Regarding `O=c1nc2[nH]c3ccccc3nc-2c(=O)[nH]1` [Alloxazine, alloxazine], the “folding of the MR1-β2m co-complex in solution” value (“folding” for short) in assay [1] was “facilitated the correct folding”. For the same molecule, the “MR1 cell surface expression” value in the assay with C1R.MR1 cells (C1R.MR1, 3 h) is listed as “reduced MR1 cell surface”. Also, the “5-OP-RU-induced activation (CD69)” value in assay [2] is listed as “could interfere with the 5-OP-RU-induced activation of MBV28 in a dose-dependent manner”. The IC50 on hMR1 protein (setting [4]) turned out to be 13.4 µM.
As to `Cc1cc2nc3[nH]c(=O)[nH]c(=O)c3nc2cc1C` [Lumichrome, 7,8-dimethylalloxazine], the “folding” value in assay [1] is recorded as “facilitated the correct folding”. Further, the “MR1 cell surface expression” value in the assay on C1R.MR1 cells (C1R.MR1, 3 h) is recorded as “reduced MR1 cell surface”. Also, the “rank as down-regulator of MR1 cell surface expression” value with C1R.MR1 cells (overall, C1R.MR1 and THP-1.MR1) was “most potent down-regulator”. Also, the “5-OP-RU-induced activation (CD69)” value in assay [2] and in assay [3] was “enhanced the 5-OP-RU-induced CD69 expression” each time. The “CD69 surface expression (activation)” value in assay [2] (SKW-3 MBV28, ligand alone) was “minor reductions in CD69”; in assay [3], “minor reductions in CD69”. The “MR1 expression on C1R.MR1 in co-culture” value in assay [2] (SKW-3 MBV28 co-culture with 5-OP-RU) and in assay [3] (SKW-3 AF-7 co-culture with 5-OP-RU) was “dose-dependent reduction in MR1 expression” each time. The IC50 at hMR1 protein (setting [4]) turned out to be 12.5 µM.
On to `Cc1cc2nc3c(=O)[nH]c(=O)nc-3n(C)c2cc1C` [Lumiflavin], for which, in assay [1], the “folding” value is recorded as “facilitated the correct folding”. Also, the IC50 at hMR1 protein (IC50, competition with 10 nM JYM20 for 100 nM empty hMR1, 37°C) is 22.8 µM. Besides, in assay [3], the “5-OP-RU-induced activation (CD69)” value is “slightly exaggerated” and the “CD69 surface expression (activation)” value is listed as “minor increase in CD69”.
Turning to `Cc1cc2nc3c(=O)[nH]c(=O)nc-3n(C[C@H](O)[C@H](O)[C@H](O)CO)c2cc1C` [RF, Riboflavin], the “folding” value in assay [1] is reported as “did not sponsor refolding”. Besides, the “MR1 cell surface expression” value in the assay on C1R.MR1 cells (C1R.MR1, 3 h) is recorded as “did not alter MR1 expression from the baseline”; in the assay on C1R.MR1 cells (C1R.MR1, 16 h), “modestly upregulated MR1”. Further, the “5-OP-RU-induced activation (CD69)” value in assay [2] and in assay [3] was “could not compete with 5-OP-RU” throughout. Further, the IC50 at hMR1 protein (setting [4]) was ~182 µM and 182 µM. For the same molecule, the “CD69 surface expression (activation)” value in assay [3] is recorded as “minor increase in CD69”.

Source of the values: paper doi:10.1101/2025.07.20.665728 (bioRxiv, 2025).
